The values below come from patent US20140287419A1, “Compositions Having Dicamba Decarboxylase Activity and Methods of Use” (priority 2013, published 2014).

The structures appear in SMILES notation. “Also recorded” adds a separate entry of the source.

In data set [1] the test system is Soybean seeds of a Pioneer elite germplasm. The data set can be described thus: Soybean germination phytotoxicity test. Particulars: for soybean seed germination and growth: 16 days.
Data set [2] deals with Arabidopsis ecotype Columbia (Col-O). The data set is described as follows: Arabidopsis root growth inhibition assay. As to conditions: 6 days. The method, then: Phytotoxicity of other major dicamba decarboxylated products was evaluated using Arabidopsis root growth inhibition assay. 4-chloro-3-methoxy phenol was purchased from Biogene Organics, Inc. (catalog number U06-642-79). 2,5-dichloro phenol was purchased from Sigma-Aldrich (catalog number D70007). Briefly, seeds of Arabidopsis ecotype Columbia (Col-O) were surface sterilized with 70% (v/v) ethanol for 5 minutes and 10% (v/v) bleach for 15 minutes. After being washed three times with distilled water, the seeds were germinated on 1× Murashige and Skoog (MS) medium with a pH of 5.7, 3% (w/v) sucrose, and 0.8% (w/v) agar. After incubation for 3.5 days, the seedlings were transferred to 1× MS medium containing B5 vitamin, 3% (w/v) sucrose, 1.2% (w/v) agar, and filter sterilized compounds was added to the media at 60° C. The concentrations of compounds including dicamba were 0 μM, 1.0 μM, and 10 μM. The seedlings were placed vertically, and the temperature maintained at 23° C. to allow root growth along the surface of the agar, with a photoperiod of 16 h of light and 8 h of dark.
After 6 days on media, root growth was evaluated. In wild type Arabidopsis, root growth inhibition is expected from auxin herbicide treatment.

As to `COc1cc(Cl)ccc1Cl` [2,5-DCA, 2,5-dichloro anisole], the “soybean seed germination and growth” value in data set [1] (1 μM in germination media) is “seed germination and growth were normal”; in data set [1] (10 μM in germination media), “seed germination and growth were normal”; in data set [1] (100 μM in germination media), “did not have any obvious impact on soybean germination and growth”. Moreover, the soybean germination result in data set [1] (FIG. 2 legend, no concentration given) is listed as “not affected”.
In the case of `Oc1cc(Cl)ccc1Cl` [2,5-dichloro phenol], the Arabidopsis root growth result in data set [2] (1.0 uM in MS medium) and in data set [2] (10 uM in MS medium) was “not affected; also recorded: did not have any effect on the growth of Arabidopsis roots” each time.
